Measured values as given in the NIST ThermoML archive (doi:10.1021/acs.jced.8b00554).

Assay: xn = mol fraction of the nth substance listed
Settings: Liquid, Vibrating tube method

CCCCCCCCC [nonane] + CCCO
mass density [kg/m3]
Settings | 343.15 K | 353.15 K
100 kPa, x2 = 0.1231 | – | 666.99
100 kPa, x2 = 0.2315 | – | 669.25
100 kPa, x2 = 0.3229 | – | 671.68
100 kPa, x2 = 0.4272 | – | 676.17
100 kPa, x2 = 0.7021 | – | 697.1
100 kPa, x2 = 0.8941 | – | 723.67
1000 kPa, x2 = 0.3229 | – | 672.91
1000 kPa, x2 = 0.4272 | – | 677.15
1000 kPa, x2 = 0.7021 | – | 697.4
1010 kPa, x2 = 0.1231 | 677.59 | 667.83
1010 kPa, x2 = 0.2315 | – | 670.69
1010 kPa, x2 = 0.4272 | 689.57 | –
1010 kPa, x2 = 0.7021 | 711.27 | –
1010 kPa, x2 = 0.8941 | 737.45 | 724.26
1020 kPa, x2 = 0.3229 | 684.46 | –
2000 kPa, x2 = 0.1231 | – | 668.99
2000 kPa, x2 = 0.2315 | – | 671.87
2000 kPa, x2 = 0.3229 | 685.59 | –
2010 kPa, x2 = 0.1231 | 678.71 | –
2010 kPa, x2 = 0.2315 | 682.42 | –
2010 kPa, x2 = 0.4272 | 690.68 | 678.31
2010 kPa, x2 = 0.7021 | 712.38 | 698.58
2010 kPa, x2 = 0.8941 | 738.5 | –
2020 kPa, x2 = 0.3229 | – | 674.1
2020 kPa, x2 = 0.8941 | – | 725.38
3000 kPa, x2 = 0.3229 | 686.69 | –
3000 kPa, x2 = 0.4272 | 691.79 | –
3000 kPa, x2 = 0.7021 | 713.46 | –
3010 kPa, x2 = 0.1231 | 679.8 | –
3010 kPa, x2 = 0.2315 | – | 673.01
3010 kPa, x2 = 0.3229 | – | 675.25
3010 kPa, x2 = 0.4272 | – | 679.49
3010 kPa, x2 = 0.7021 | – | 699.75
3010 kPa, x2 = 0.8941 | 739.56 | 726.49
3020 kPa, x2 = 0.1231 | – | 670.15
3020 kPa, x2 = 0.2315 | 683.53 | –
4000 kPa, x2 = 0.4272 | – | 680.67
4010 kPa, x2 = 0.1231 | – | 671.29
4010 kPa, x2 = 0.2315 | 684.63 | –
4010 kPa, x2 = 0.3229 | 687.78 | 676.42
4010 kPa, x2 = 0.7021 | 714.57 | 700.94
4010 kPa, x2 = 0.8941 | – | 727.63
4020 kPa, x2 = 0.1231 | 680.88 | –
4020 kPa, x2 = 0.2315 | – | 674.2
4020 kPa, x2 = 0.4272 | 692.9 | –
4020 kPa, x2 = 0.8941 | 740.61 | –
5000 kPa, x2 = 0.1231 | 681.97 | –
5000 kPa, x2 = 0.4272 | – | 681.83
5000 kPa, x2 = 0.7021 | 715.67 | –
5010 kPa, x2 = 0.1231 | – | 672.43
5010 kPa, x2 = 0.2315 | – | 675.32
5010 kPa, x2 = 0.3229 | 688.88 | –
5010 kPa, x2 = 0.4272 | 694 | –
5010 kPa, x2 = 0.7021 | – | 702.12
5010 kPa, x2 = 0.8941 | 741.67 | 728.78
5020 kPa, x2 = 0.2315 | 685.69 | –
5020 kPa, x2 = 0.3229 | – | 677.57
6000 kPa, x2 = 0.1231 | – | 673.56
6000 kPa, x2 = 0.4272 | – | 683.02
6010 kPa, x2 = 0.1231 | 683.04 | –
6010 kPa, x2 = 0.2315 | – | 676.43
6010 kPa, x2 = 0.3229 | 689.97 | 678.73
6010 kPa, x2 = 0.4272 | 695.09 | –
6010 kPa, x2 = 0.7021 | 716.75 | 703.28
6010 kPa, x2 = 0.8941 | – | 729.91
6020 kPa, x2 = 0.2315 | 686.75 | –
6020 kPa, x2 = 0.8941 | 742.73 | –
7000 kPa, x2 = 0.2315 | – | 677.57
7000 kPa, x2 = 0.3229 | 691.04 | –
7000 kPa, x2 = 0.8941 | 743.78 | –
7010 kPa, x2 = 0.2315 | 687.82 | –
7010 kPa, x2 = 0.3229 | – | 679.88
7010 kPa, x2 = 0.4272 | 696.18 | –
7010 kPa, x2 = 0.8941 | – | 731.05
7020 kPa, x2 = 0.1231 | 684.1 | 674.7
7020 kPa, x2 = 0.4272 | – | 684.19
7020 kPa, x2 = 0.7021 | 717.84 | 704.46
8000 kPa, x2 = 0.2315 | 688.91 | –
8000 kPa, x2 = 0.3229 | – | 681.03
8000 kPa, x2 = 0.7021 | – | 705.61
8000 kPa, x2 = 0.8941 | 744.82 | –
8010 kPa, x2 = 0.1231 | – | 675.84
8010 kPa, x2 = 0.3229 | 692.11 | –
8010 kPa, x2 = 0.4272 | 697.28 | 685.36
8010 kPa, x2 = 0.8941 | – | 732.17
8020 kPa, x2 = 0.1231 | 685.16 | –
8020 kPa, x2 = 0.2315 | – | 678.73
8020 kPa, x2 = 0.7021 | 718.92 | –
9000 kPa, x2 = 0.1231 | – | 676.94
9000 kPa, x2 = 0.2315 | – | 679.85
9010 kPa, x2 = 0.1231 | 686.2 | –
9010 kPa, x2 = 0.2315 | 689.96 | –
9010 kPa, x2 = 0.3229 | 693.2 | 682.18
9010 kPa, x2 = 0.4272 | – | 686.5
9010 kPa, x2 = 0.7021 | – | 706.79
9010 kPa, x2 = 0.8941 | 745.86 | 733.3
9020 kPa, x2 = 0.4272 | 698.35 | –
9020 kPa, x2 = 0.7021 | 720.01 | –
10000 kPa, x2 = 0.2315 | 690.99 | 680.95
10000 kPa, x2 = 0.4272 | – | 687.67
10000 kPa, x2 = 0.7021 | 721.05 | –
10000 kPa, x2 = 0.8941 | 746.88 | –
10010 kPa, x2 = 0.1231 | 687.25 | 678.03
10010 kPa, x2 = 0.3229 | 694.26 | 683.34
10010 kPa, x2 = 0.7021 | – | 707.93
10010 kPa, x2 = 0.8941 | – | 734.42
10020 kPa, x2 = 0.4272 | 699.44 | –
11000 kPa, x2 = 0.3229 | 695.31 | –
11000 kPa, x2 = 0.4272 | 700.47 | –
11010 kPa, x2 = 0.1231 | 688.29 | –
11010 kPa, x2 = 0.7021 | 722.11 | –
11020 kPa, x2 = 0.2315 | 692.04 | –
11020 kPa, x2 = 0.8941 | 747.91 | –
12000 kPa, x2 = 0.3229 | 696.36 | –
12010 kPa, x2 = 0.1231 | 689.31 | –
12010 kPa, x2 = 0.2315 | 693.08 | –
12010 kPa, x2 = 0.4272 | 701.53 | –
12010 kPa, x2 = 0.8941 | 748.9 | –
12020 kPa, x2 = 0.7021 | 723.13 | –
13010 kPa, x2 = 0.4272 | 702.56 | –
13010 kPa, x2 = 0.8941 | 749.87 | –
13020 kPa, x2 = 0.1231 | 690.32 | –
13020 kPa, x2 = 0.2315 | 694.1 | –
13020 kPa, x2 = 0.3229 | 697.39 | –
13020 kPa, x2 = 0.7021 | 724.18 | –
14000 kPa, x2 = 0.1231 | 691.3 | –
14000 kPa, x2 = 0.3229 | 698.41 | –
14000 kPa, x2 = 0.8941 | 750.86 | –
14010 kPa, x2 = 0.2315 | 695.1 | –
14010 kPa, x2 = 0.7021 | 725.19 | –
14020 kPa, x2 = 0.4272 | 703.57 | –
15010 kPa, x2 = 0.1231 | 692.28 | –
15010 kPa, x2 = 0.4272 | 704.56 | –
15010 kPa, x2 = 0.7021 | 726.16 | –
15010 kPa, x2 = 0.8941 | 751.83 | –
15020 kPa, x2 = 0.2315 | 696.09 | –
15020 kPa, x2 = 0.3229 | 699.39 | –
16000 kPa, x2 = 0.8941 | 752.78 | –
16010 kPa, x2 = 0.1231 | 693.22 | –
16010 kPa, x2 = 0.7021 | 727.16 | –
16020 kPa, x2 = 0.2315 | 697.06 | –
16020 kPa, x2 = 0.3229 | 700.38 | –
16020 kPa, x2 = 0.4272 | 705.54 | –
17000 kPa, x2 = 0.1231 | 694.17 | –
17000 kPa, x2 = 0.3229 | 701.35 | –
17000 kPa, x2 = 0.4272 | 706.5 | –
17010 kPa, x2 = 0.7021 | 728.12 | –
17020 kPa, x2 = 0.2315 | 698.04 | –
17020 kPa, x2 = 0.8941 | 753.71 | –
18010 kPa, x2 = 0.1231 | 695.1 | –
18010 kPa, x2 = 0.2315 | 698.96 | –
18010 kPa, x2 = 0.7021 | 729.04 | –
18020 kPa, x2 = 0.3229 | 702.27 | –
18020 kPa, x2 = 0.4272 | 707.45 | –
18020 kPa, x2 = 0.8941 | 754.62 | –
19000 kPa, x2 = 0.2315 | 699.84 | –
19000 kPa, x2 = 0.3229 | 703.2 | –
19000 kPa, x2 = 0.7021 | 729.96 | –
19000 kPa, x2 = 0.8941 | 755.52 | –
19010 kPa, x2 = 0.1231 | 695.98 | –
19010 kPa, x2 = 0.4272 | 708.36 | –
20000 kPa, x2 = 0.4272 | 709.29 | –
20010 kPa, x2 = 0.1231 | 696.86 | –
20010 kPa, x2 = 0.2315 | 700.72 | –
20010 kPa, x2 = 0.3229 | 704.07 | –
20010 kPa, x2 = 0.7021 | 730.88 | –
20020 kPa, x2 = 0.8941 | 756.41 | –
